This passage reports IC50 results from patent US10568876B2, “Tetrahydroisoquinoline derivatives useful as inhibitors of diacylglyceride O-acyltransferase 2” (Merck Sharp & Dohme Corp., priority 2014, dated 2020).

The target in this test is hDGAT2 (Homo sapiens (Human), UniProt Q96PD7). In words: DGAT2 Enzymatic Activity Assay. As to conditions: hDGAT2 Sf-9 membrane prep; 25 μM diolein, 10 μM oleoyl-CoA; triolein product by LC/MS/MS; read-out: IC50 values for inhibition of DGAT2. Format: biochemical. On the procedure: Sf-9 insect cells were maintained in Grace's insect cell culture medium with 10% heated-inactivated fetal bovine serum, 1% Pluronic F-68 and 0.14 μg/ml Kanamycine sulfate in Erlenmeyer flasks at 28° C. in a shaker incubator. After infection with untagged hDGAT2 baculovirus at multiplicity of infection (MOI) 0.1 for 48 hours, cells were harvested. Cell pellets were suspended in buffer containing 10 mM Tris-HCl (pH 7.5), 1 mM EDTA (pH 8.0), 250 mM sucrose and Complete Protease Inhibitor Cocktail (Roche Diagnostics Corp., Indianapolis, Ill.), and sonicated on ice. Membrane fractions were isolated by ultracentrifugation (100,000×g pellet), resuspended in the same buffer, and frozen (−80° C.) for later use. The protein concentration was determined with the BCA Protein Assay kit (Pierce Biotechnology Inc., Rockford, Ill.). Expression of protein levels was analyzed by immunoblotting with goat polyclonal DGAT2 antibody C-15 and donkey anti-goat IgG HRP (Santa Cruz Biotechnology, Inc., Santa Cruz, Calif.) followed by detection with ECL reagent (GE Healthcare, Piscataway, N.J.).
hDGAT2, sequence (Q96PD7 whole entry): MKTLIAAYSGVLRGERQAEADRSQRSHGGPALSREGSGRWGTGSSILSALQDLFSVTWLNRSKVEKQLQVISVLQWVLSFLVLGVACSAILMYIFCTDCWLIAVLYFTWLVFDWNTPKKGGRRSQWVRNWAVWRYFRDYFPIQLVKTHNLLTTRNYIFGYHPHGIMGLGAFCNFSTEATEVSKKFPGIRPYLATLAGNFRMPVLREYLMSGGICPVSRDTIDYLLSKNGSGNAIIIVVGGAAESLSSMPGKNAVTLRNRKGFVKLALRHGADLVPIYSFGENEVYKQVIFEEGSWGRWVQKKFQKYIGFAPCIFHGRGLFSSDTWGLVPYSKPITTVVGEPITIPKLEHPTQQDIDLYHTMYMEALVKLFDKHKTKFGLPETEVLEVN
LC/MS/MS analyses were performed using Thermal Fisher's LX4-TSQ Vantage system. This system consists of an Agilent binary high-performance liquid chromatography (HPLC) pumps and a TSQ Vantage triple quadrupole MS/MS instrument. For each sample, 2 μL, samples from the top organic layer of in-plate liquid-liquid extraction were injected onto a Thermo Betabasic C4 column (2.1 mm×20 mm, 5 μm particle size). The samples were then eluted using the following conditions; mobile phase: methanol/water with 0.1% ammonium format=92/8 (v/v), flow rate: 1 mL/min, temperature: 25 C. Data was acquired in positive mode using a heated electrospray ionization (HESI) interface. The operational parameters for the TSQ Vantage MS/MS instrument were a spray voltage of 3000 V, capillary temperature of 280° C., vaporizer temperature 400° C., shealth gas 60 arbitrary unit, Aux gas 40 arbitrary units, S-lens 113 and collision gas 0.16 Pascals. […] (SRM) chromatograms of triolein (Q1: 902.9>Q3: 602.3) and internal standard (Q1: 902.9>Q3: 602.3) were collected for 40 sec. The peak area was integrated by Xcalibur Quan software. The ratio between the triolein generated in the reaction and spiked in internal standard were used to generate percentage inhibition and IC50 values. Compound percentage inhibition was calculated by the following formula: Inhibition %=1-[(compound response low control)/(high control low control)]×100%. Potent compounds were titrated and IC50 were calculated by 4 parameter sigmoidal curve fitting formula.
DGAT2 activity was determined by measuring the amount of enzymatic product triolein (1,2,3-Tri(cis-9-octadecenoyl)glycerol) using the membrane prep mentioned above. The assay was carried out in deep well 384 plates in a final volume of 40 μL at room temperature. The assay mixture contained the following: assay buffer (100 mM Tris.Cl, pH 7.0, 20 mM MgCl2, 5% ethanol), 25 μM of diolein, 10 μM of oleoyl-CoA and 10 ng/μL of DGAT2 membrane.
As usually defined, the IC50 is the point on the concentration scale where inhibition reaches its midpoint. As to `COC(=O)c1cccc(-c2ccc(CNC(=O)C3CC3c3ccccc3)c3c2CCN(C(=O)c2cccnc2)C3)c1` (centres unmarked) [Example 134, methyl 3-(2-nicotinoyl-8-((2-phenylcyclopropanecarboxamido)methyl)-1,2,3,4-tetrahydroisoquinolin-5-yl)benzoate], the IC50 is 3.56 µM.

Take `CC(C)(C)NC(=O)N1CCc2c(-c3cccc(-n4cccn4)c3)ccc(CNC(=O)[C@@H]3C[C@H]3c3ccccc3)c2C1` (relative stereo) [Example 34, 5-(3-(1H-pyrazol-1-yl)phenyl)-N-(tert-butyl)-8-(((trans)-2-phenylcyclopropanecarboxamido)methyl)-3,4-dihydroisoquinoline-2(1H)-carboxamide]: the IC50 was determined as 0.0116 µM.

`CC(C)(C)NC(=O)N1CCc2c(-c3cnn(Cc4ccccc4)c3)ccc(CNC(=O)[C@@H]3C[C@H]3c3ccccc3)c2C1` (relative stereo) [Example 40, 5-(1-benzyl-1H-pyrazol-4-yl)-N-(tert-butyl)-8-(((trans)-2-phenylcyclopropanecarboxamido)methyl)-3,4-dihydroisoquinoline-2(1H)-carboxamide]: the half-inhibitory concentration (IC50) was found to be 4.79 µM.

Regarding `COc1cccc(-c2ccc(CNC(=O)[C@H]3C[C@@H]3c3cccnc3)c3c2CCN(C(=O)NC(C)(C)C)C3)c1` (relative stereo) [Example 19, N-(tert-butyl)-5-(3-methoxyphenyl)-8-(((trans)-2-(pyridin-3-yl)cyclopropanecarboxamido)methyl)-3,4-dihydroisoquinoline-2(1H)-carboxamide], the IC50 came to 0.0085 µM.

As for `CC(C)(C)NC(=O)N1CCc2c(-c3cccc(-n4ccnn4)c3)ccc(CNC(=O)[C@@H]3C[C@H]3c3ccccc3)c2C1` (relative stereo) [Example 5, 5-(3-(1H-1,2,3-triazol-1-yl)phenyl)-N-(tert-butyl)-8-(((trans)-2-phenylcyclopropanecarboxamido)methyl)-3,4-dihydroisoquinoline-2(1H)-carboxamide], the IC50 worked out at 0.0114 µM.

Turning to `COC(=O)c1cccc(-c2ccc(CNC(=O)C3CC3c3ccccc3)c3c2CCN(C(=O)c2cccc(-n4cccc4)c2)C3)c1` (centres unmarked) [Example 124, methyl 3-(2-(3-(1H-pyrrol-1-yl)benzoyl)-8-((2-phenylcyclopropanecarboxamido)methyl)-1,2,3,4-tetrahydroisoquinolin-5-yl)benzoate], the concentration for half-maximal inhibition (IC50) worked out at 5.49 µM.

`COc1cccc(-c2ccc(CNC(=O)[C@@H]3C[C@H]3c3ccccc3)c3c2CCN(C(=O)Nc2ccncc2)C3)c1` (relative stereo) [Example 18, 5-(3-methoxyphenyl)-8-(((trans)-2-phenylcyclopropanecarboxamido)methyl)-N-(pyridin-4-yl)-3,4-dihydroisoquinoline-2(1H)-carboxamide]: the IC50 came to 2.1 µM.

For `COC(=O)c1cccc(-c2ccc(CNC(=O)C3CC3c3ccccc3)c3c2CCN(C(=O)c2ccncc2)C3)c1` (centres unmarked) [Example 133, methyl 3-(2-isonicotinoyl-8-((2-phenylcyclopropanecarboxamido)methyl)-1,2,3,4-tetrahydroisoquinolin-5-yl)benzoate], the IC50 was determined as 2.51 µM.

With `COC(=O)c1cccc(-c2ccc(CNC(=O)C3CC3c3ccccc3)c3c2CCN(C(=O)C2(C#N)CC2)C3)c1` (centres unmarked) [Example 128, methyl 3-(2-(1-cyanocyclopropanecarbonyl)-8-((2-phenylcyclopropanecarboxamido)methyl)-1,2,3,4-tetrahydroisoquinolin-5-yl)benzoate], the IC50 stood at 1.59 µM.

Consider `Cc1noc(C2CC2C(=O)NCc2ccc(-c3cccc(OC(F)(F)F)c3)c3c2CN(C(=O)NC(C)(C)C)CC3)n1` (stereo not drawn) [Example 1, N-(tert-butyl)-8-(((trans)-2-(3-methyl-1,2,4-oxadiazol-5-yl)cyclopropanecarboxamide)methyl)-5-(3-(trifluoromethoxy)phenyl)-3,4-dihydroisoquinoline-2(1H)-carboxamide], for which the IC50 amounted to 0.0036 µM.

Regarding `CC(C)Cn1cc(-c2ccc(CNC(=O)[C@@H]3C[C@H]3c3ccccc3)c3c2CCN(C(=O)NC(C)(C)C)C3)cn1` (relative stereo) [Example 37, N-(tert-butyl)-5-(1-isobutyl-1H-pyrazol-4-yl)-8-(((trans)-2-phenylcyclopropanecarboxamido)methyl)-3,4-dihydroisoquinoline-2(1H)-carboxamide], the IC50 came out at 0.0956 µM.

Consider `COc1cccc(-c2ccc(CNC(=O)C3CC3c3cccnc3)c3c2CCN(C(=O)NC(C)(C)C)C3)c1` (centres unmarked) [Example 13, N-(tert-butyl)-5-(3-methoxyphenyl)-8-((2-(pyridin-3-yl)cyclopropanecarboxamido)methyl)-3,4-dihydroisoquinoline-2(1H)-carboxamide], for which the IC50 is 0.0061 µM.

As for `COc1cccc(-c2ccc(CNC(=O)[C@@H]3C[C@H]3c3ccccc3)c3c2CCN(C(=O)C(O)C(F)(F)F)C3)c1` (relative stereo) [Example 119, (trans)-N-((5-(3-methoxyphenyl)-2-(3,3,3-trifluoro-2-hydroxypropanoyl)-1,2,3,4-tetrahydroisoquinolin-8-yl)methyl)-2-phenylcyclopropanecarboxamide], the IC50 is 1.54 µM.

Take `CCOCC(=O)N1CCc2c(-c3cccc(C(=O)OC)c3)ccc(CNC(=O)C3CC3c3ccccc3)c2C1` (centres unmarked) [Example 136, methyl 3-(2-(2-ethoxyacetyl)-8-((2-phenylcyclopropanecarboxamido)methyl)-1,2,3,4-tetrahydroisoquinolin-5-yl)benzoate]: the 50% inhibitory concentration (IC50) amounted to 2.17 µM.

In the case of `COC(=O)c1cccc(-c2ccc(CNC(=O)C3CC3c3ccccc3)c3c2CCN(C(=O)c2ccccc2F)C3)c1` (centres unmarked) [Example 139, methyl 3-(2-(2-fluorobenzoyl)-8-((2-phenylcyclopropanecarboxamido)methyl)-1,2,3,4-tetrahydroisoquinolin-5-yl)benzoate], the IC50 was 0.219 µM.

Regarding `Cc1noc([C@@H]2C[C@H]2C(=O)NCc2ccc(-c3cccc(OC(F)(F)F)c3)c3c2CN(CC(=O)N2COCC2(C)C)CC3)n1` (relative stereo) [Example 103, (trans)-N-((2-(2-(4,4-dimethyloxazolidin-3-yl)-2-oxoethyl)-5-(3-(trifluoromethoxy)phenyl)-1,2,3,4-tetrahydroisoquinolin-8-yl)methyl)-2-(3-methyl-1,2,4-oxadiazol-5-yl)cyclopropanecarboxamide], the IC50 was found to be 1.76 µM.

As for `CC(C)(C)NC(=O)N1CCc2c(-c3cncc(CO)c3)ccc(CNC(=O)C3C[C@H]3c3ccccc3)c2C1` (stereo partly drawn) [Example 28, N-(tert-butyl)-5-(5-(hydroxymethyl)pyridin-3-yl)-8-(((trans)-2-phenylcyclopropanrcarboxamido)methyl)-3,4-dihydroisoquinoline-2(1H)-carboxamide], the IC50 turned out to be 0.992 µM.

Consider `Cc1noc([C@@H]2C[C@H]2C(=O)NCc2ccc(-c3cccc(OC(F)(F)F)c3)c3c2CN(Cc2noc(C(C)C)n2)CC3)n1` (relative stereo) [Example 104, (trans)-N-((2-((5-isopropyl-1,2,4-oxadiazol-3-yl)methyl)-5-(3-(trifluoromethoxy)phenyl)-1,2,3,4-tetrahydroisoquinolin-8-yl)methyl)-2-(3-methyl-1,2,4-oxadiazol-5-yl)cyclopropanecarboxamide], for which the IC50 was 5.09 µM.

For `Cn1nnc2ccc(-c3ccc(CNC(=O)[C@@H]4C[C@H]4c4ccccc4)c4c3CCN(C(=O)NC(C)(C)C)C4)cc21` (relative stereo) [Example 33, N-(tert-butyl)-5-(1-methyl-1H-benzo[d][1,2,3]triazol-6-yl)-8-(((trans)-2-phenylcyclopropanecarboxamido)methyl)-3,4-dihydroisoquinoline-2(1H)-carboxamide], the IC50 stood at 2.86 µM.

Take `CC(C)(C)NC(=O)N1CCc2c(-c3cccc(C(F)(F)F)c3)ccc(CNC(=O)[C@@H]3C[C@H]3c3ccccc3)c2C1` (relative stereo) [Example 14, N-(tert-butyl)-8-(((trans)-2-phenylcyclopropanecarboxamido)methyl)-5-(3-(trifluoromethyl)phenyl)-3,4-dihydroisoquinoline-2(1H)-carboxamide]: the IC50 came to 0.034 µM.
